Earlier results on 1 compound are cited in patent publication US20220177978A1, “METHODS OF PREDICTING AND PREVENTING CANCER IN PATIENTS HAVING PREMALIGNANT LESIONS” (INSERM (Institut National de la Santé et de la Recherche …, priority 2019, published 2022).

Molecules are shown by their SMILES.

One data set deals with JAK2 (Homo sapiens, UniProt O60674).
JAK2, sequence (O60674 whole entry, species assumed): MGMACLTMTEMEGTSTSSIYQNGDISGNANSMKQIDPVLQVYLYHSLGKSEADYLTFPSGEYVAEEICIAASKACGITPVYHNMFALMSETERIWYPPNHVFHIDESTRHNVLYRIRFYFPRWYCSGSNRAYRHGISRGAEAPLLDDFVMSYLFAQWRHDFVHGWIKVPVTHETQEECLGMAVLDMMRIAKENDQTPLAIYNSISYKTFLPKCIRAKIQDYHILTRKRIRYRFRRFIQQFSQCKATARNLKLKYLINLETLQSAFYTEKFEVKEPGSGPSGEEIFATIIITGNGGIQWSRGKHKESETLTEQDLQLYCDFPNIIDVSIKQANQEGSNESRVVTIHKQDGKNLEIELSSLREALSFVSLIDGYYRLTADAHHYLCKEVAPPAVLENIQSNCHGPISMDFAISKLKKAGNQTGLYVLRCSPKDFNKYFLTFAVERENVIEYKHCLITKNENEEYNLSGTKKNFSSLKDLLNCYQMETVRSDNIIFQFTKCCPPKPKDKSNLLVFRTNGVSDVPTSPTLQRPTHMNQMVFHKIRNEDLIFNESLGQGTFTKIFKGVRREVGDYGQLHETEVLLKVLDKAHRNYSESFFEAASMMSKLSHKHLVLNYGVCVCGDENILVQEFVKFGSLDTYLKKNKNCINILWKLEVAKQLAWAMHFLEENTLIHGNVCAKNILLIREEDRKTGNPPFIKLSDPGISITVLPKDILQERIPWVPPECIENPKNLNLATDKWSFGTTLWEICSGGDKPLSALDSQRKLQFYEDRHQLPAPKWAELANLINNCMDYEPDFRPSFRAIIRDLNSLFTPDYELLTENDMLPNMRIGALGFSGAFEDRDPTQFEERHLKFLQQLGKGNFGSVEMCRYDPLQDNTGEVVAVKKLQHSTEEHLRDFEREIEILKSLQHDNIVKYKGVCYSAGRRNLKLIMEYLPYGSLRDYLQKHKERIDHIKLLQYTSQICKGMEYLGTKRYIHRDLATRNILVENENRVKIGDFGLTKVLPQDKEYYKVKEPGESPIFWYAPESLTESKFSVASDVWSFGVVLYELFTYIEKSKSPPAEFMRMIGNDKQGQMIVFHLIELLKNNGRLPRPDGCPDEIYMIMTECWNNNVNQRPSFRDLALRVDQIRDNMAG

As to `C[C@H](Nc1cc(-c2cnn(C)c2)cc(Nc2cnccn2)n1)c1ccc(F)cc1` [NS018], the half-inhibitory concentration (IC50) – broadly, the point on the concentration scale where inhibition reaches its midpoint – at JAK2 was below 1 nM. The “selectivity for JAK2 over other JAK-family kinases” value in the data set on other JAK-family kinases was 30-50 fold.
